Experimental data reported in US11713305B2, “Zinc sensors for in vivo imaging of beta-cell function by MRI” (The Board of Regents of the University of Texas System, priority 2017, dated 2023).

Columns and labels:
[1] = system: mouse pancreas; test: In vivo MR imaging of glucose stimulated insulin secretion (GSIS) in the mouse pancreas; set-up: species or system C57B1/6 mice; conditions: for T1-weighted MR image enhancement in pancreatic tissues and kidneys: over the first 10-15 min after injection
Source text: Both phases of insulin secretion are considered essential, but the early RRP phase that is thought to be the first signal reduced during the development of type 2 diabetes (Komatsu et al., 2013; Hosker et al., 1989). In principle, both phases of insulin secretion should be detectable by MRI if enough sensor is present in the extracellular space during the time-course of these events. Biphasic GSIS was not detected by MRI in previous experiments using the first generation Zn^2+ sensors with a high affinity for Zn^2+ but we hypothesized that GSIS may be more easily detected using these second-generation agents having a much lower affinity for Zn^2+. To test this, dynamic MRI scans were collected after administering either GdL1, GdL2, GdL3 or GdL4 to C57B1/6 mice via a tail vein (0.07 mmol/kg). Nearly simultaneously with agent injection, a bolus (50 μL) of 20% w/v glucose was administered IP to stimulate secretion of insulin.
All animal experiments were performed in accordance with guidelines set by the UT Southwestern Institutional Animal Care and Use Committee (IACUC). Male C57b1/6 mice were fasted for at least 12 hours before imaging experiments. The animals were anaesthetized with isofluorane and catheterized via the tail vein. Once the animals were secured inside a 38 mm volume coil, the pancreas was positioned in the center of the 9.4 T Varian MRI scanner. Two 3D T1-weighted gradient echo pre-injection scans were obtained (TE/TR=1.69/3.34 ms, NEX8, Matrix=128×128 ×128). 70 μl of 20 mM contrast agent were injected i.v. and 50 μl of 20% w/v D-glucose were injected intraperitoneally and consecutive 3D T1-weighted scans were obtained sequentially to monitor signal enhancement in the pancreas. Identification of the pancreas was accomplished by locating the tissues surrounded by the spleen, stomach, and kidneys. A total of 3 animals were scanned per group and images were quantified and analyzed using ImageJ (National Institutes of Health, Bethesda, Md.). The signal intensities from ROIs of the tip of the pancreas were measured before, at every ˜3-4 minutes post D-glucose injection over 30 minutes total. The values were normalized to the signal intensity obtained from a water phantom placed on the mouse abdomen. Contrast enhancement was calculated using the formula
[formula] Statistical analysis was performed by comparing the mean values using a two-tailed t-test. Statistical difference was evaluated using t-scores and p-values at a 95 and 99% confidence level.

[2] = r1 relaxivity measurements (20 MHz, 0.5 T, 37° C.); format: physicochemical; conditions: 100 mM Tris buffer; for r1 0.6 mM HSA alone / r1 No Zn^2+: no Zn^2+; for r1 With Zn^2+ / r1 Zn^2+ + 0.6 mM HSA: CA:Zn = 1:1; for r1 No Zn^2+: no HSA
Protocol: Longitudinal relaxation times were measured using inversion recovery method on a MRS-6 NMR analyzer from the Institute Joz̆ef Stefan (Ljubljana, Slovenija) operating at 20 MHz. Relaxivity was determined by linear regression analysis of the relaxation rates of five solutions (0-1.0 mM). All samples were measured at 310 K using a warm air blower. Five different sample concentrations (0, 0.25, 0.5, 0.75, 1.0 mM) of gadolinium complex were made up in Tris buffer at 0.1 M and pH 7.4 to generate the relaxivity value for the free complex. ZnCl2 was then added to each of the above sample to produce a [Gd]:[Zn] ratio of 1:1. After 30 min of incubation at 310 K, T1 measurements were performed, from which the relaxivity of sensor-Zn^2+ was calculated. Finally, HSA was added to each of above sample to achieve HSA concentration of 0.6 mM. After further incubation at 310 K for 30 min, T1 of each sensor-Zn^2+-HSA adduct was measured, from which the relaxivity of sensor-Zn^2+-HSA adduct was calculated. Zinc titrations were performed with constant [GdL]=0.5 mM and increasing amounts of [Zn^2+]=0-2 mM in Tris buffer at 0.1 M and pH 7.4.

[3] = molecular target: T1, HSA (Homo sapiens, UniProt P02768); test: HSA dissociation constant by fluorescence competition with dansylglycine; format: binding; conditions: one site competition fitting with dansylglycine; in presence of Zn^2+; read-out: KD(GdLZnHSA)
T1 construct: purchased Sigma-Aldrich
Protocol: The procedures reported by Esqueda et al were followed (2009). A solution containing 5 μM of dansylglycine (or warfarin), 5 μM HSA, 400 μM GdL plus one equivalent of Zn^2+ was prepared in TRIS buffer. Aliquots of this solution were 2-fold diluted serially ten times by addition of a solution which contained the same concentrations of dansylglycine (warfarin) and HSA but no agent. The fluorescence of 100 μL aliquots was measured in triplicate in 96 well plates. In a similar manner solutions containing agent, HSA but no dansylglycine (warfarin), were also included. Four 100 μL aliquots of the solution containing no agent (maximum fluorescent intensity) were also measured in the same 96 well plate, along with four 100 μL aliquots of HSA in buffer.
The excitation and emission wavelengths used for the dansylglycine: 360 and 465 nm, respectively. The excitation and emission wavelengths used for warfarin: 320 and 380 nm, respectively.

[4] = GdL-Zn dissociation constants by fluorescence (ZnAF-2F competition); format: binding; conditions: K2 in FIG. 4; Tris buffer; read-out: KD(GdLZn)
Protocol: The procedures reported by Esqueda et al were followed (Esqueda et al., 2009). Solutions containing 1 μM of ZnAF-2F, 0.05 μM ZnCl2 and 100 μM GdL sensors were prepared in TRIS buffer. Aliquots of this solution were 3-fold diluted serially 10 times by addition of a buffered solution containing the same concentration of ZnAF-2F and ZnCl2 but no agent. The fluorescence was measured in triplicate in 96 well plates (100 μL). In a similar manner solutions containing agent, ZnCl2 but no fluorescent probe, were prepared and fluorescence measured by triplicate to account for any signal coming from the agent interacting with Zn^2+. The excitation and emission wavelengths used were 492 and 514 nm, respectively. The Zn dissociation constant was determined by fitting the data to the following equations:
[formula] F is the measured corrected fluorescence. Fmin is the minimal fluorescence observed in the competition binding experiment. Fmax corresponds to the fluorescence in absence of competitor. [GdL]o is the concentration of the zinc sensor chosen. IC50 corresponds to the concentration of competitor that decreases by 50% the % F. K′D is the dissociation constant of the competitor. [FP]o is the total concentration of the fluorescent probe. KD is the dissociation constant of the fluorescent probe and Zn^2+.

T1 sequence (P02768 25-609): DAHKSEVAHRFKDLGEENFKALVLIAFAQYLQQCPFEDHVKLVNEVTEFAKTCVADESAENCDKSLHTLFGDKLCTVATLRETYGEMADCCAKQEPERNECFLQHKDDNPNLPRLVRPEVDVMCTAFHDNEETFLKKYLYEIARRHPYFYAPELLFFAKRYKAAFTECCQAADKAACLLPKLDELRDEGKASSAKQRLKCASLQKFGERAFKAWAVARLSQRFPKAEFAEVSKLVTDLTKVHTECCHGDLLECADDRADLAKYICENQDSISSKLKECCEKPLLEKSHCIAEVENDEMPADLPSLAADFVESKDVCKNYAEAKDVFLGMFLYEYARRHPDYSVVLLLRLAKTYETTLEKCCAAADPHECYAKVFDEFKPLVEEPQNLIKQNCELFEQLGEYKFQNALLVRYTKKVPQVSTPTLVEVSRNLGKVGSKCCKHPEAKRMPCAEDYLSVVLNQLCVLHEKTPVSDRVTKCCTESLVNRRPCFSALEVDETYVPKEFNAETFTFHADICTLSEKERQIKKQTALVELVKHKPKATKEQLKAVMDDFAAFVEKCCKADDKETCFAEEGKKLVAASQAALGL

Row | SMILES | T1-weighted MR image enhancement in pancreatic tissues and kidneys ([1]; 0.07 mmol/kg i.v., glucose IP) | pancreatic response at 3 minutes (FIG. 7A) ([1]; post-glucose stimulation) | r1 0.6 mM HSA alone [2] [s⁻¹ mM⁻¹] | r1 With Zn^2+ [2] | r1 Zn^2+ + 0.6 mM HSA [2] | r1 No Zn^2+ [2] [s⁻¹ mM⁻¹] | Kd [3] [µM] | Kd [4] [nM] | dynamic images: phases of insulin secretion detected ([1]; 0.07 mmol/kg i.v., glucose IP, n=3) | Area under the curve (AUC) t=11−19 minutes post-glucose stimulation (FIG. 7C) ([1]; compared to control Gd-HPDO3A and GdL1) | enhancement profile from pancreas ROI normalized to external phantom (FIG. 7B) ([1]; mouse, in vivo) | pancreatic response at 15 minutes (FIG. 7A) ([1]; post-glucose stimulation)
1 | O=C(O)CN1CCN(CC(=O)O)CCN(CC(=O)NCCN(Cc2ccccn2)Cc2ccccn2)CCN(CC(=O)O)CC1 [GdL1] | significant image enhancements | enhance the pancreas | 5.8 ± 0.1 | 5.2 ± 0.1^b s^−1 mM^−1 | 17.8 ± 0.5^b s^−1 mM^−1 | 4.8 ± 0.1 | 36 ± 1 | 118 |  |  |  | 
2 | O=C(O)CN1CCN(CCC(=O)NCCN(Cc2ccccn2)Cc2ccccn2)CCN(CC(=O)O)CCN(CC(=O)O)CC1 [GdL2] | significant image enhancements |  | 6.5 ± 0.1 | 5.5 ± 0.1^b s^−1 mM^−1 | 19.8 ± 0.6^b s^−1 mM^−1 | 4.9 ± 0.1 | 37 ± 1 | 190 ± 5 |  |  |  | 
3 | O=C(O)CCN1CCN(CC(=O)O)CCN(CC(=O)NCCN(Cc2ccccn2)Cc2ccccn2)CCN(CC(=O)O)CC1 [GdL3] | significant image enhancements |  | 6.9 ± 0.2 | 5.4 ± 0.1^b s^−1 mM^−1 | 21.5 ± 0.7^b s^−1 mM^−1 | 5.0 ± 0.1 | 37 ± 1 | 185 ± 5 |  |  |  | 
4 | O=C(O)CN1CCN(CC(=O)O)CCN(CC(=O)NCCN(CCc2ccccn2)Cc2ccccn2)CCN(CC(=O)O)CC1 [GdL4] |  | enhance the pancreas | 5.6 ± 0.1 | 5.1 ± 0.1^b s^−1 mM^−1 | 11.4 ± 0.3^b s^−1 mM^−1 | 4.7 ± 0.1 | 42 ± 1 | 2350 | both early phase (3-4 min) and late phase (13-17 min) insulin secretion | improved bi-phasic profile | distinct bi-phasic profile | shows second-phase enhancement
5 | O=C(O)CN1CCN(CCC(=O)NCCN(CCc2ccccn2)Cc2ccccn2)CCN(CC(=O)O)CCN(CC(=O)O)CC1 [GdL5] |  |  | 6.3 ± 0.2 | 5.3 ± 0.1^b s^−1 mM^−1 | 10.4 ± 0.3^b s^−1 mM^−1 | 4.9 ± 0.1 | 43 ± 1 | 2570 ± 54 |  |  |  | 
